System: various cell lines of different tumor origins
Test: Inhibition of cell proliferation, InCell Analyzer assay
Type: cell-based
Experimental: C. Inhibition of Cell Proliferation
For InCell Analyser assay, various cell lines of different tumor origins were grown to 70-80% confluency in appropriate culture media containing 10% fetal bovine serum at 37° C. in a 5% CO2 incubator. On day-1, cells were seeded at 2 densities in 384-well plates and incubated at 37° C. overnight. Stock compound plates were prepared in advance which contained dimethyl sulfoxide (DMSO) alone and a 9-point half-log decreasing dose range of the compound of Example 22 in DMSO. The compound plates were stored at −80° C. and each plate was only thawed once and used. On day 0, the main assay plates received compound or DMSO via a sonic delivery system (ECHO). The highest final concentration of compound of the dose range in the culture plates was 10 uM. These plates were cultured at 37° C. for 3 days. […] On day 3, the compound treated plates were stained and fixed to measure proliferation, apoptosis, and mitotic index using an InCell1000 analyser. A nuclear stain was used to identify cells in the wells. By counting the number of nuclei, the proliferation index of compound treated groups were calculated as a percentage relative to the DMSO control, which was set to 100%. The IC50 values were calculated using model 205 in ExcelFit.

IC50 (Homo sapiens, NCI-H292, NCI-H292, Lung): 1 to 5 µM
IC50 (Homo sapiens, NCI-H295R, Cervix): > 5 µM
IC50 (Homo sapiens, NCI-H358, NCI-H358, Lung): < 1 µM
IC50 (Homo sapiens, NCI-H460, NCI-H460, Lung): 1 to 5 µM
IC50 (Homo sapiens, NCI-H520, NCI-H520, Lung): 1 to 5 µM
IC50 (Homo sapiens, NCI-H522, NCI-H522, Lung): 1 to 5 µM
IC50 (Homo sapiens, NCI-H526, NCI-H526, Lung): < 1 µM
IC50 (Homo sapiens, NCI-H596, NCI-H596, Lung): > 5 µM
IC50 (Homo sapiens, NCI-H630, NCI-H630, Rectum): < 1 µM
IC50 (Homo sapiens, NCI-H661, NCI-H661, Lung): 1 to 5 µM
IC50 (Homo sapiens, NCI-H716, NCI-H716, Colon): < 1 µM
IC50 (Homo sapiens, NCI-H727, NCI-H727, Lung): 1 to 5 µM
IC50 (Homo sapiens, NCI-H747, NCI-H747, Colon): 1 to 5 µM
IC50 (Homo sapiens, NCI-H1395, NCI-H1395, Lung): > 5 µM
IC50 (Homo sapiens, NCI-H2087, NCI-H2087, Lung): > 5 µM
IC50 (Homo sapiens, NCI-N87, NCI-N87, Stomach): < 1 µM
IC50 (Homo sapiens, NCI/ADR-RES, Breast): 1 to 5 µM
IC50 (Homo sapiens, OV-90, OV-90, Ovary): > 5 µM
IC50 (Homo sapiens, OVCAR-3, OVCAR-3, Ovary): > 5 µM
IC50 (Homo sapiens, OVCAR-4, OVCAR-4, Ovary): 1 to 5 µM
IC50 (Homo sapiens, OVCAR-5, OVCAR-5, Ovary): < 1 µM
IC50 (Homo sapiens, OVCAR-8, OVCAR-8, Ovary): 1 to 5 µM
IC50 (Homo sapiens, RL95-2, RL95-2, Uterus): 1 to 5 µM
IC50 (Homo sapiens, RPMI-2650, RPMI2650, H&N): 1 to 5 µM
IC50 (Homo sapiens, RPMI-6666, RPMI6666, lymphoma - Hodgkin): 1 to 5 µM
IC50 (Homo sapiens, RPMI-8226, RPMI8226, Myeloma): < 1 µM
IC50 (Homo sapiens, RWPE-1, RWPE-1, Prostate): < 1 µM
IC50 (Homo sapiens, RXF 393, RXF393, Kidney): 1 to 5 µM
IC50 (Homo sapiens, Raji, lymphoma - Burkitt): 1 to 5 µM
IC50 (Homo sapiens, SAOS-2, SaOS-2, Sarcoma): < 1 µM
IC50 (Homo sapiens, SCC-4, SCC-4, H&N): 1 to 5 µM
IC50 (Homo sapiens, SCC-9, SCC-9, H&N): > 5 µM
IC50 (Homo sapiens, SCC-15, SCC-15, H&N): > 5 µM
IC50 (Homo sapiens, SCC-25, SCC-25, H&N): < 1 µM
IC50 (Homo sapiens, SCaBER, Bladder): 1 to 5 µM
IC50 (Homo sapiens, SF-268, SF-268, glioma): 1 to 5 µM
IC50 (Homo sapiens, SF-295, SF-295, glioma): > 5 µM
IC50 (Homo sapiens, SF-539, SF-539, glioma): > 5 µM
IC50 (Homo sapiens, SHP77, SHP-77, Lung): 1 to 5 µM
IC50 (Homo sapiens, SJRH30, SJRH30, Sarcoma - rhabdomyosarcoma): < 1 µM
IC50 (Homo sapiens, SK-BR-3, SK-BR-3, Breast): 1 to 5 µM
IC50 (Homo sapiens, SK-LMS-1, SK-LM-S1, Sarcoma): 1 to 5 µM
IC50 (Homo sapiens, SK-MEL3, SK-MEL-3, Skin): > 5 µM
IC50 (Homo sapiens, SK-MEL-1, SK-MEL-1, Skin): > 5 µM
IC50 (Homo sapiens, SK-MEL-28, SK-MEL-28, Skin): 1 to 5 µM
IC50 (Homo sapiens, SK-N-AS, neuroblastoma): 1 to 5 µM
IC50 (Homo sapiens, SK-N-DZ, neuroblastoma): 1 to 5 µM
IC50 (Homo sapiens, SK-N-FI, neuroblastoma): < 1 µM
IC50 (Homo sapiens, SK-NEP-1, SK-NEP-1, Kidney): > 5 µM
IC50 (Homo sapiens, SK-OV-3, SK-OV-3, Ovary): > 5 µM
IC50 (Homo sapiens, SK-UT-1, SK-UT-1, Sarcoma): 1 to 5 µM
IC50 (Homo sapiens, SN12C, Kidney): 1 to 5 µM
IC50 (Homo sapiens, SNB-19, SNB-19, glioma): > 5 µM
IC50 (Homo sapiens, SNB-75, SNB-75, glioma): > 5 µM
IC50 (Homo sapiens, SNU1, SNU-1, Stomach): > 5 µM
IC50 (Homo sapiens, SNU-5, SNU-5, Stomach): > 5 µM
IC50 (Homo sapiens, SNU-16, SNU-16, Stomach): > 5 µM
IC50 (Homo sapiens, SNU-182, SNU-182, Liver): 1 to 5 µM
IC50 (Homo sapiens, SNU-387, SNU-387, Liver): 1 to 5 µM
IC50 (Homo sapiens, SNU-398, SNU-398, Liver): 1 to 5 µM
IC50 (Homo sapiens, SNU-423, SNU-423, Liver): 1 to 5 µM
IC50 (Homo sapiens, SNU-449, SNU-449, Liver): > 5 µM
IC50 (Homo sapiens, SNU-475, SNU-475, Liver): 1 to 5 µM
IC50 (Homo sapiens, ST486, ST486, lymphoma - Burkitt): 1 to 5 µM
IC50 (Homo sapiens, SW48, SW48, Colon): < 1 µM
IC50 (Homo sapiens, SW480, SW480, Colon): 1 to 5 µM
IC50 (Homo sapiens, SW684, SW684, Sarcoma): > 5 µM
IC50 (Homo sapiens, SW756, SW756, Cervix): 1 to 5 µM
IC50 (Homo sapiens, SW780, SW780, Bladder): > 5 µM
IC50 (Homo sapiens, SW837, SW837, Colon): > 5 µM
IC50 (Homo sapiens, SW872, SW872, Sarcoma): 1 to 5 µM
IC50 (Homo sapiens, SW948, SW948, Colon): > 5 µM
IC50 (Homo sapiens, SW 954, SW954, Vulva): < 1 µM
IC50 (Homo sapiens, SW 962, SW962, Vulva): < 1 µM
IC50 (Homo sapiens, SW982, SW982, Sarcoma): > 5 µM
IC50 (Homo sapiens, SW1088, SW1088, glioma): 1 to 5 µM
IC50 (Homo sapiens, SW 1116, SW1116, Colon): > 5 µM
IC50 (Homo sapiens, SW1353, SW1353, Sarcoma): > 5 µM
IC50 (Homo sapiens, SW1417, SW1417, Colon): < 1 µM
IC50 (Homo sapiens, SW1463, SW1463, Rectum): < 1 µM
IC50 (Homo sapiens, SW1783, SW1783, glioma): > 5 µM
IC50 (Homo sapiens, SW1990, SW1990, Pancreas): 1 to 5 µM
IC50 (Homo sapiens, SW-403, SW403, Colon): < 1 µM
IC50 (Homo sapiens, SW-620, SW620, Colon): 1 to 5 µM
IC50 (Homo sapiens, SiHa, Cervix): 1 to 5 µM
IC50 (Homo sapiens, T47D, T-47D, Breast): 1 to 5 µM
IC50 (Homo sapiens, THP-1, THP-1, AML): 1 to 5 µM
IC50 (Homo sapiens, TK-10, TK-10, Kidney): 1 to 5 µM
IC50 (Homo sapiens, U2OS, U-2OS, Sarcoma): 1 to 5 µM
IC50 (Homo sapiens, U138-MG, U-138MG, glioma): > 5 µM
IC50 (Homo sapiens, U-87 MG, glioma): > 5 µM
IC50 (Homo sapiens, U-251, U251, glioma): 1 to 5 µM
IC50 (Homo sapiens, UACC-62, UACC-62, Skin): 1 to 5 µM
IC50 (Homo sapiens, UACC-257, UACC-257, Skin): 1 to 5 µM
IC50 (Homo sapiens, UACC-812, UACC-812, Breast): > 5 µM
IC50 (Homo sapiens, UMUC3, UM-UC-3, Bladder): > 5 µM
IC50 (Homo sapiens, UO-31, UO-31, Kidney): 1 to 5 µM
IC50 (Homo sapiens, WM-115, WM115, Skin): > 5 µM
IC50 (Homo sapiens, YAPC, Pancreas): > 5 µM
IC50 (Homo sapiens, ZR-75-1, ZR-75-1, Breast): > 5 µM
IC50 (J82, Bladder): 1 to 5 µM
IC50 (JAR, Placenta): 1 to 5 µM
IC50 (KHOS-240S, Sarcoma): 1 to 5 µM
IC50 (KLE, Uterus): 1 to 5 µM
IC50 (KPL-1, KPL-1, Breast): 1 to 5 µM
IC50 (M14, Skin): 1 to 5 µM
IC50 (MC-CAR, #N/A): 1 to 5 µM
IC50 (ML-2, AML): > 5 µM
IC50 (MT-3, Breast): < 1 µM
IC50 (MX-1, Breast): 1 to 5 µM
IC50 (NALM-1, CML blast phase): 1 to 5 µM
IC50 (NCI-H322, NCI-H322, Lung): < 1 µM
IC50 (NCI-H660, NCI-H660, Prostate): > 5 µM
IC50 (RD, Sarcoma - rhabdomyosarcoma): > 5 µM
IC50 (RD-ES, Sarcoma): < 1 µM
IC50 (RL, lymphoma - non-Hodgkin): 1 to 5 µM
IC50 (SCC12, SCC-12, H&N): > 5 µM
IC50 (SCC-13, SCC-13, H&N): > 5 µM
IC50 (SCLC-3, Lung): 1 to 5 µM
IC50 (SH-4, Skin): 1 to 5 µM
IC50 (SKO-007, SKO-007, Myeloma): 1 to 5 µM
IC50 (SR, lymphoma - large cell immunoblastic): 1 to 5 µM
IC50 (SW579, SW579, Thyroid): 1 to 5 µM
IC50 (T24, Bladder): > 5 µM
IC50 (T-cell, MJ, lymphoma - cutaneous T cell): 1 to 5 µM
IC50 (TE 381.T, TE381.T, Sarcoma - rhabdomyosarcoma): < 1 µM
IC50 (TO 175.T, TO175.T, Skin): 1 to 5 µM
IC50 (U266B1, Myeloma): 1 to 5 µM
IC50 (Y79, Eye): > 5 µM
Structure (SMILES): COc1cc(N2CCC(N3CCCCC3)CC2)ccc1Nc1nccc(-c2c(-c3cccc(C(=O)Nc4c(F)cccc4F)c3)nc3ccccn23)n1 [Example 22, 3-[3-(2-{[4-(1,4′-bipiperidin-1′-yl)-2-(methyloxy)phenyl]amino}-4-pyrimidinyl)imidazo[1,2-a]pyridin-2-yl]-N-(2,6-difluorophenyl)benzamide]

From patent US20100216779A1 (GLAXOSMITHKLINE LLC, priority 2007, published 2010)
